Test [1] relates to T cell leukemia cell line (Jurkat cell). Description: Cytotoxic activity, MTS assay in T cell line. It is filed as cell-based. The note with it: Homo sapiens, Jurkat cells, compound 2 μM, 72 h, relative to solvent control (DMSO). From the text:
In order to rule out the biological function changes of T cell caused by cytotoxic effects of the compounds themselves, MTS assay was used as a routine cytotoxicity detection method. The basic principle was that the dehydrogenase in the living cell mitochondria was capable of metabolizing and reducing the new type yellow […] compound MTS to formazan. The amount of formazan product measured at 490 nm absorbance (OD) was directly proportional to the number of viable cells in the culture, and thus whether the test compound itself had the ability of inhibiting cell growth or killing cells can be judged basing on the OD value.
In this experiment, the T cell leukemia cell line (Jurkat cell) was evaluated for its cell growth activity according to the MTS assay.
The MTS was carried out in a 96-well plate according to a routine experimental procedure.
Cell lines were inoculated into a 96-well plate at an appropriate concentration (approximately 20,000 cells/well), test compounds (final concentration 2 μM) were added, and at the same time solvent control (DMSO) and negative control wells were set, and the well was set in triplicate. The cells were further cultured for 72 h followed by detection.
After the culture, 20 μL of the a pre-prepared mixture of MTS and PMS (mixed in a ratio of 20:1) was added directly to the culture well, and incubated in a 37° C. incubator for 2 h, and then detection was conducted using a microplate reader (490 nm).
The background value of the negative control was subtracted, and the relative cell activity (%) of the test compound on cell growth=(OD value of the test well/OD value of the solvent control well)×100%.

The next test concerns the target T1, PD-1/PD-L1 binding (UniProt Q9NZQ7).
T1 construct: fused on or other part: human IgG Fc (hFc tag) fused to PD-L1
Description: In-vitro PD-1/PD-L1 binding inhibition (HTRF). Further details: species or system human. The note with it: His-PD-1 100 nM, PD-L1-Fc 2 nM final, read-out: IC50 on inhibiting PD-1/PD-L1 binding in-vitro. The text has this:
Main Principle of the Experiment (HTRF)
Homogeneous Time-Resolved Fluorescence (HTRF): The PD-1 protein carried an His tag and the Fc fusion protein of its ligand PD-L1 carried an hFc tag. An anti-hFc antibody labeled with a chelating marker of Eu element and an anti-His antibody labeled with XL66 were respectively combined with two corresponding tags. After laser excitation (320 nm), energy was transferred from the donor Eu to the acceptor XL665, so that the XL665 emitted light (665 nm). […] The basic detection principle was as follows (see FIG. 3):
The His-tagged human recombinant PD-1 protein (Cat#: 80448-R08H-100) and human recombinant PD-L1-Fc fusion protein (Cat#: 90251-CO2H-100) were purchased from Sino Biological Inc., and the anti-hFc-Eu3^+ and anti-His-XL665 antibody were purchased from Cisbio. Other related reagents such as dilution buffer, detection buffer were all purchased from Cisbio. The fluorescence detection instrument Tecan (Spark 10M) was purchased from Tecan, Switzerland.
The experimental process was carried out in accordance with the procedure required by the instruction manual for the test reagent […]. The process was as follows:
(1) Preparation of the experiment: The test compound was diluted to a different concentration gradient with a dilution buffer (the maximum final concentration was 10 μM in 20 μL final reaction system), the His-PD-1 protein was diluted to 800 nM (the final concentration was 100 nM in 20 μL final reaction system), and the PD-L1-Fc fusion protein was diluted to 16 nM (the final concentration was 2 nM). The anti-His-XL665 antibody and the anti-hFc-Eu^3+ antibody were diluted 20-fold and 100-fold, respectively, with the test diluent according to the reagent requirements.
(2) 5 μL of the test compound, 2.5 μL of PD-L1 protein and 2.5 μL of PD-1 protein solution were evenly mixed, and then reacted at room temperature for 15 min. Subsequently, 5 μL of anti-His-XL665 antibody and 5 μL of anti-hFc-Eu^3+ antibody were added to the system, and the incubation was continued for 3 hours followed by detection.
(3) At the same time of detection of the reaction, control groups were set, including a 0-inhibited positive control to which no test compound was added, and a negative control to which no PD-1 protein was added. All tests were run in duplicate.
(4) The fluorescence signal of each well was detected by a fluorescence detector Tecan (Spark 10M) with an excitation wavelength of 320 nm and detected emission wavelengths of 620 nm and 665 nm, respectively. The intensity of PD-1/PD-L1 binding to each other referred to the fluorescence signal ratio Em665/Em620.
(5) Formula for calculating the binding inhibition rate of test compounds: inhibition rate (%)=[1−(ratio of fluorescence signals of detection holes−negative control)/(ratio of fluorescence signals of 0-inhibited positive control−negative control)×100%. After calculating the binding inhibition rate of the test compounds with different concentration gradients, the 50% inhibitory concentration (IC50) was further calculated.
A general note: Time-resolved FRET reads energy transfer from a long-lived donor to a nearby acceptor.

For test [2], the system named is PD-1/PD-L1 interaction in human peripheral mononuclear cells (PBMC). Description: PD-1 signal inhibition at cellular level: IL-2 secretion of SEB-stimulated PBMC (ELISA). Type of test: cell-based. To be noted: SEB 200 ng/mL-stimulated volunteer PBMC, compound 2 μM, 96 h; compared to anti-human PD-1 antibody (5 μg/mL). A general note: ELISA stands for enzyme-linked immunosorbent assay.

On to `Cc1c(COc2ccc(CNCCNC(=O)NCCN3CCOCC3)c(OCc3cccc(C#N)c3)c2)cccc1-c1ccccc1` [Compound I-1, 1-((2-(2-(3-cyanophenyl)methoxy-4-(2-methyl-(1,1′-diphenyl)-3-yl-methoxy))benzylamino)-2-ethyl)-3-(2-(N-morpholine)ethyl)urea], for which the activity at 2 µM in test [1] was 102%. For the same compound, the IC50 on PD-1/PD-L1 binding was found to be 1.71 µM.

Regarding `Cc1c(COc2ccc(CNCCNC(=O)NCCO)c(OCc3cccc(C#N)c3)c2)cccc1-c1ccccc1` [Compound I-2, 1-((2-(2-(3-cyanophenyl)methoxy-4-(2-methyl-(1,1′-diphenyl)-3-yl-methoxy))benzylamino)-2-ethyl)-3-(2-hydroxyethyl)urea], the activity at 2 µM in test [1] was determined as 100%. Also, the IC50 on PD-1/PD-L1 binding was 0.581 µM.

Consider `Cc1c(COc2ccc(CNCCNC(=O)N[C@@H](COC(C)(C)C)C(=O)OC(C)(C)C)c(OCc3cccc(C#N)c3)c2)cccc1-c1ccccc1` [Compound I-3, 1-((2-(2-(3-cyanophenyl)methoxy-4-(2-methyl-(1,1′-diphenyl)-3-yl-methoxy))benzylamino)-2-ethyl)-3-(2-tert-butyl-O-tert-butyl-L-serinate-2-yl)urea], for which the activity at 2 µM in test [1] came to 99.7%. The IC50 on PD-1/PD-L1 binding came out at 3.12 µM.

On to `Cc1cc(CNCCNC(=O)NCCO)c(OCc2cncc(C#N)c2)cc1OCc1cccc(-c2ccc3c(c2)OCCO3)c1C#N` [Compound I-4], for which the activity at 2 µM in test [1] was 93.2%. In addition, the IC50 at PD-1/PD-L1 binding was 0.0375 µM.

Regarding `Cc1cc(CNCCNC(=O)NC(CO)(CO)CO)c(OCc2cncc(C#N)c2)cc1OCc1cccc(-c2ccc3c(c2)OCCO3)c1C#N` [Compound I-5], in test [1], the activity at 2 µM worked out at 94.6%. The “Activity of promoting IL-2 (%)” value in test [2] came to 53%. Also, the IC50 at PD-1/PD-L1 binding came out at 0.0364 µM.

Regarding `C=C(NC(=O)NCCNCc1cc(C)c(OCc2cccc(-c3ccc4c(c3)OCCO4)c2C#N)cc1OCc1cncc(C#N)c1)C(=O)O` [Compound I-6], the activity at 2 µM in test [1] was 92.1%. For the same compound, the “Activity of promoting IL-2 (%)” value in test [2] came out at 56.3%. Further, the IC50 at PD-1/PD-L1 binding came to 0.0702 µM.

In the case of `Cc1cc(CNCCOCCNC(=O)NCCO)c(OCc2cncc(C#N)c2)cc1OCc1cccc(-c2ccc3c(c2)OCCO3)c1C#N` [Compound I-7], the activity at 2 µM in test [1] stood at 94.5%. The “Activity of promoting IL-2 (%)” value in test [2] is 58.1%. Besides, at PD-1/PD-L1 binding, the IC50 is 0.0437 µM.

On to `Cc1cc(CNCCNC(=O)NCCN2CCOCC2)c(OCc2cncc(C#N)c2)cc1OCc1cccc(-c2ccc3c(c2)OCCO3)c1C#N` [Compound I-8], for which the activity at 2 µM in test [1] amounted to 95.1%. For the same compound, on PD-1/PD-L1 binding, the IC50 was determined as 0.061 µM.

For the compound `Cc1cc(CNCCOCCNC(=O)NCCS(C)(=O)=O)c(OCc2cncc(C#N)c2)cc1OCc1cccc(-c2ccc3c(c2)OCCO3)c1C#N` [Compound I-9], the activity at 2 µM in test [1] was 99.6%. The IC50 at PD-1/PD-L1 binding is 0.0281 µM.

As to `Cc1cc(CNCCOCCNC(=O)NCCN(C)C)c(OCc2cncc(C#N)c2)cc1OCc1cccc(-c2ccc3c(c2)OCCO3)c1C#N` [Compound I-10], the activity at 2 µM in test [1] worked out at 97.1%. On PD-1/PD-L1 binding, the IC50 worked out at 0.0733 µM.

With `Cc1cc(CNCCNC(=O)NCCN(C)C)c(OCc2cncc(C#N)c2)cc1OCc1cccc(-c2ccc3c(c2)OCCO3)c1C#N` [Compound I-11], in test [1], the activity at 2 µM worked out at 95.6%. Also, in test [2], the “Activity of promoting IL-2 (%)” value is given as 51.7%. The IC50 on PD-1/PD-L1 binding came to 0.0761 µM.

With `Cc1cc(CNCCNC(=O)NCCS(C)(=O)=O)c(OCc2cncc(C#N)c2)cc1OCc1cccc(-c2ccc3c(c2)OCCO3)c1C#N` [Compound I-12], the activity at 2 µM in test [1] was determined as 91.6%. Besides, the IC50 on PD-1/PD-L1 binding worked out at 0.0491 µM.

For the compound `Cc1cc(CNCCNC(=O)N[C@@H](CO)C(=O)O)c(OCc2cncc(C#N)c2)cc1OCc1cccc(-c2ccc3c(c2)OCCO3)c1C#N` [Compound I-13], the activity at 2 µM in test [1] was 91.1%. Moreover, the IC50 on PD-1/PD-L1 binding came out at 0.0158 µM.

In the case of `C=CC(=O)NCCNC(=O)NCCNCc1cc(C)c(OCc2cccc(-c3ccc4c(c3)OCCO4)c2C#N)cc1OCc1cncc(C#N)c1` [Compound I-14], the activity at 2 µM in test [1] amounted to 102%. At PD-1/PD-L1 binding, the IC50 was determined as 0.197 µM.

Source of the values: patent US10654815B2, “Urea compound and preparation method and application thereof” (SHENZHEN CHIPSCREEN BIOSCIENCES CO., LTD., priority 2016, dated 2020).
